Here are results for four compounds from WO2020158863A1, “Combined drug of anthracycline compound-containing micelle preparation with immunostimulant” (priority 2019, dated 2020).

Structures can show the parent of a compound that is named as a salt.

The subject of data set [1] is GL261 cells. Briefly: ICD marker expression on cell surface, flow cytometry, GL261 cells. It counts as cell-based, mouse. Particulars: 24 h; negative control; Fig. 8G.
Data set [2] concerns mouse pancreatic cancer cells KPC. Briefly: IC50 for mouse pancreatic cancer cells KPC (Experimental Example 13-1). It counts as cell-based. Particulars: Pancreatic cancer cell.
The next data set deals with KPC cells. Briefly: ICD marker expression, flow cytometry, KPC cells (Experimental Example 13-2). It counts as cell-based, mouse. Particulars: 24 h, Fig. 21; for HSP70 level / HSP90 level / calreticulin level: 1 μg/mL or 5 μg/mL.
Data set [3] deals with mouse glioblastoma (GBM) cells GL261. Description: in vitro cytotoxicity assay (Experimental Example 3). It counts as cell-based. Particulars: 3 h exposure, 48 h incubation; Fig. 3.
In another data set the test system is PD-L1. Description: PD-L1 expression in CT2A tumors, flow cytometry (Experimental Example 10). It counts as in vivo, mouse. Particulars: 8 days after single tail vein injection, 6 mg/kg Epi equivalent; Fig. 16. In general terms: Flow cytometry measures light scatter and fluorescence of single cells or particles in a stream.
The test system of data set [4] is fibrosarcoma cell carcinoma line (MCA205, Sarcoma180, NIH3T3, HT1080). Briefly: IC50 against fibrosarcoma cell lines (Experimental Example 12-1). It counts as cell-based.
In data set [5] the test system is GL261-luc tumor. Description: Orthotopic GL261-luc tumor in nude mice (Experimental Example 7-1). It counts as in vivo, mouse. Particulars: nude BALB/c; 5 mg/kg Epi equivalent.
A further data set relates to CT2A cells. Description: Cytotoxic activity (IC50), CT2A cells (Experimental Example 6). It counts as cell-based, mouse. Particulars: PTEN-negative; 48 h; Fig. 8F.
The subject of data set [6] is various cancer cells (MCA205, AB12, GL261, CT2A, LL2, C26). Briefly: IC50 against various cancer cells (Experimental Example 11-1). It counts as cell-based.
Data set [7] deals with GL261-luc tumor. Description: Orthotopic GL261-luc tumor in wild type mice (Experimental Example 7-1). It counts as in vivo, mouse. Particulars: wild type C57/BL6; 5 mg/kg Epi equivalent.
Data set [8] relates to GL261 cells. Description: Cytotoxic activity (IC50), GL261 cells (Experimental Example 6).

`[NH2][Pt]([NH2])([Cl])[Cl]` [CDDP, Cisplatin]: in the data set with GL261 cells [1], the ICD marker level entry is given as “did not significantly increase the marker”.

As a reminder, the IC50 is the midpoint of a concentration-inhibition curve. Regarding `COc1cccc2c1C(=O)c1c(O)c3c(c(O)c1C2=O)C[C@@](O)(C(=O)CO)C[C@@H]3O[C@H]1C[C@H](N)[C@H](O)[C@H](C)O1` [DOX, doxorubicin hydrochloride], the IC50 in data set [2] is no more than 2 µg/mL. In the data set on KPC cells, the HSP70 level entry is “significantly increased”, the HSP90 level result is reported as “significantly increased” and the calreticulin level entry was “significantly increased”.

With `COc1cccc2c1C(=O)c1c(O)c3c(c(O)c1C2=O)C[C@@](O)(C(=O)CO)C[C@@H]3O[C@H]1C[C@H](N)[C@@H](O)[C@H](C)O1` [Epi, Epirubicin hydrochloride], the in vitro cytotoxicity result in data set [3] is on record as “high in vitro cytotoxicity”. Besides, in the data set on PD-L1, the “expression level of PD-L1 in tumor cells” value is listed as “no such reduction in expression levels occurred”. The IC50 in data set [4] was no more than 2 µg/mL; in [6], no more than 1 µg/mL; in the data set with GL261 cells [8] (Mus musculus, GL261, 48 h) it was less than 1 µg/mL. Moreover, the tumor growth rate entry in the data set on GL261-luc tumor [5] is on record as “the tumor growth rate was not suppressed”. For the same compound, the cytotoxic activity entry is on record as “high activity against PTEN-negative CT2A cells, comparable to the activity against GL261 cells” in the data set with CT2A cells and “high cytotoxic activity” with GL261 cells [8] (PTEN-positive, 48 h, Fig. 8E). Also, in the data set on GL261-luc tumor [7], the “tumor growth rate / tumor-derived luminescence” value is “the tumor growth rate was not suppressed”. The HSP70 level result in the data set with KPC cells is listed as “significantly increased”. The HSP90 level result in the data set on KPC cells is listed as “significantly increased”. For the same compound, the calreticulin level entry with KPC cells is listed as “significantly increased”.

In the case of `CCc1c2c(nc3ccc(OC(=O)N4CCC(N5CCCCC5)CC4)cc13)-c1cc3c(c(=O)n1C2)COC(=O)[C@]3(O)CC` [irinotecan], in the data set with KPC cells (any concentration), the ICD marker level entry is given as “did not significantly increase the marker at any concentration”.
